Results: paper PMC8371461 (Frontiers in Pharmacology, 2021)

Tests used:
Test in all cases: kinome scan
Format in all cases: binding
CSNK1G1 = target: T1, CSNK1G1 (Homo sapiens, UniProt Q9HCP0); conditions: 10 µM
T1 construct: purchased DiscoverX (KINOMEscan)

ROS1 = target: T2, ROS1 (Homo sapiens, UniProt P08922); conditions: 10 µM
T2 construct: purchased DiscoverX (KINOMEscan)

MET = target: T3, MET (Homo sapiens, UniProt P08581); conditions: 10 µM
T3 construct: purchased DiscoverX (KINOMEscan)

[1] = target: T4, JAK1(JH2domain-pseudokinase) (Homo sapiens, UniProt P23458); conditions: 10 µM
T4 construct: JAK1(JH2domain-pseudokinase); purchased DiscoverX (KINOMEscan)

PIK3CG = target: T5, PIK3CG (Homo sapiens, UniProt P48736)
T5 construct: purchased DiscoverX (KINOMEscan)
T5 sequence (P48736 whole entry): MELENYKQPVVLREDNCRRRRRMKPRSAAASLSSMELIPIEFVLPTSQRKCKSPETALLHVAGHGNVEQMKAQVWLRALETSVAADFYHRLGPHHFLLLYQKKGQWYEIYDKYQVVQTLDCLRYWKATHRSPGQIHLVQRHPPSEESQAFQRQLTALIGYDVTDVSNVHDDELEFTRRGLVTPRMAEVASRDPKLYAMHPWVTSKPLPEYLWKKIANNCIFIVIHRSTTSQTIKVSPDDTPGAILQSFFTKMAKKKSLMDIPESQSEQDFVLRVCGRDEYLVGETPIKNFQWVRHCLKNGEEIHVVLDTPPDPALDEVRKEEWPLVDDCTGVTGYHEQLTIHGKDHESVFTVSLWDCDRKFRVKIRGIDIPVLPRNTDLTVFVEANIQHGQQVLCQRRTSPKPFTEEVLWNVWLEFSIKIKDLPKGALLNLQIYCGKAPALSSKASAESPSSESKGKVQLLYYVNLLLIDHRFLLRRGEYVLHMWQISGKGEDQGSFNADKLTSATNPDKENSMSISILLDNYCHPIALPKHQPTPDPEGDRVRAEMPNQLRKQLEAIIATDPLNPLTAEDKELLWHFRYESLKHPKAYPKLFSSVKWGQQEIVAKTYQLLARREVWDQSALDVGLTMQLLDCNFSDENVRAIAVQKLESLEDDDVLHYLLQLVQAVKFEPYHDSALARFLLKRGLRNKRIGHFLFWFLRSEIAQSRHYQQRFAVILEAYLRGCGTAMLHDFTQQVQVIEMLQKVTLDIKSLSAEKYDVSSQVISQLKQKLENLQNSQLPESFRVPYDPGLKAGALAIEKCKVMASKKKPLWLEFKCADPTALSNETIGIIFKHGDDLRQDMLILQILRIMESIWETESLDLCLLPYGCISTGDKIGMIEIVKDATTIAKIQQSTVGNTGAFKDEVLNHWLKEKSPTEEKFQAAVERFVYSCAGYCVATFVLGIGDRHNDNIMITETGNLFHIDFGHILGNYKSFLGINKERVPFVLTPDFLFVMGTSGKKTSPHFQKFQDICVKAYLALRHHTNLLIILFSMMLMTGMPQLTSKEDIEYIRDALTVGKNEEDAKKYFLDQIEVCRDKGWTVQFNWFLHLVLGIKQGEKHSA

MAP3K2 = target: T6, MAP3K2 (Homo sapiens, UniProt Q9Y2U5); conditions: 10 µM
T6 construct: purchased DiscoverX (KINOMEscan)

HIPK2 = target: T7, HIPK2 (Homo sapiens, UniProt Q9H2X6); conditions: 10 µM
T7 construct: purchased DiscoverX (KINOMEscan)

EGFR(L747-E749delA750P) = target: T8, EGFR(L747-E749delA750P) (Homo sapiens, UniProt P00533, A750P/DEL747-749); conditions: 10 µM
T8 construct: purchased DiscoverX (KINOMEscan)

DYRK2 = target: T9, DYRK2 (Homo sapiens, UniProt Q92630)
T9 construct: purchased DiscoverX (KINOMEscan)
T9 sequence (Q92630 1-601): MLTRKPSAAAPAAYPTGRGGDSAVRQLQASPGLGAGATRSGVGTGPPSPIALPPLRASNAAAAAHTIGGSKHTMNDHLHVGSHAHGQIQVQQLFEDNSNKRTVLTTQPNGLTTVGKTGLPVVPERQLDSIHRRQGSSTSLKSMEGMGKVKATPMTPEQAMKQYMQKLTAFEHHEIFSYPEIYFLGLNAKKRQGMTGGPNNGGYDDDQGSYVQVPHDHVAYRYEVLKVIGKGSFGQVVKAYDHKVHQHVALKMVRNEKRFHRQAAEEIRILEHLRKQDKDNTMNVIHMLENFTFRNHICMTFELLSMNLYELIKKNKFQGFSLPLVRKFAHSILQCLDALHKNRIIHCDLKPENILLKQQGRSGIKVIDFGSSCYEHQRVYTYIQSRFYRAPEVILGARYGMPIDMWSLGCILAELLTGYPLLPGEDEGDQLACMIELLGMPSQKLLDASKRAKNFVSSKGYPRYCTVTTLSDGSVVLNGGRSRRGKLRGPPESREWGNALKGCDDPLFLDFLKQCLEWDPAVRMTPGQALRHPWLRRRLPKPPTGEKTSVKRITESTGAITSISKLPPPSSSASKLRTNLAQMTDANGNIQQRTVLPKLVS

CDKL3 = target: T10, CDKL3 (Homo sapiens, UniProt Q8IVW4); conditions: 10 µM
T10 construct: purchased DiscoverX (KINOMEscan)

LCK = target: T11, LCK (Homo sapiens, UniProt P06239); conditions: 10 µM
T11 construct: purchased DiscoverX (KINOMEscan)

CDC2L1 = target: T12, CDC2L1 (Homo sapiens, UniProt P21127); conditions: 10 µM
T12 construct: purchased DiscoverX (KINOMEscan)

CAMKK1 = target: T13, CAMKK1 (Homo sapiens, UniProt Q8N5S9); conditions: 10 µM
T13 construct: purchased DiscoverX (KINOMEscan)

KIT(V559DV654A) = target: T14, KIT(V559DV654A) (Homo sapiens, UniProt P10721, V559D/V654A); conditions: 10 µM
T14 construct: purchased DiscoverX (KINOMEscan)
T14 sequence (P10721 544-976 V559D/V654A limits assumed): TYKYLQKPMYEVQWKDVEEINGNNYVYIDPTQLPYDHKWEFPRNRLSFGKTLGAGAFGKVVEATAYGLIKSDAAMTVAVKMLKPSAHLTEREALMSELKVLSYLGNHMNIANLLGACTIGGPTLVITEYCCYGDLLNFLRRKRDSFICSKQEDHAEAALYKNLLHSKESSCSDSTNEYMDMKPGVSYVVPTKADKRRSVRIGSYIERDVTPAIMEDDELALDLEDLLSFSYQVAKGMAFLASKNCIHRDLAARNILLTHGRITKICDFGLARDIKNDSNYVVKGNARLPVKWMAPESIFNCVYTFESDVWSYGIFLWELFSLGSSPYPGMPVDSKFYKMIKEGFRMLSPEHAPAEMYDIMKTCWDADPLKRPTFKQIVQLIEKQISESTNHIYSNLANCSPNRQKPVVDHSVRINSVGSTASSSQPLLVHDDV

TAK1 = target: T15, TAK1 (Homo sapiens, UniProt O43318); conditions: 10 µM
T15 construct: purchased DiscoverX (KINOMEscan)

TLK1 = target: T16, TLK1 (Homo sapiens, UniProt Q9UKI8); conditions: 10 µM
T16 construct: purchased DiscoverX (KINOMEscan)
T16 sequence (Q9UKI8 whole entry): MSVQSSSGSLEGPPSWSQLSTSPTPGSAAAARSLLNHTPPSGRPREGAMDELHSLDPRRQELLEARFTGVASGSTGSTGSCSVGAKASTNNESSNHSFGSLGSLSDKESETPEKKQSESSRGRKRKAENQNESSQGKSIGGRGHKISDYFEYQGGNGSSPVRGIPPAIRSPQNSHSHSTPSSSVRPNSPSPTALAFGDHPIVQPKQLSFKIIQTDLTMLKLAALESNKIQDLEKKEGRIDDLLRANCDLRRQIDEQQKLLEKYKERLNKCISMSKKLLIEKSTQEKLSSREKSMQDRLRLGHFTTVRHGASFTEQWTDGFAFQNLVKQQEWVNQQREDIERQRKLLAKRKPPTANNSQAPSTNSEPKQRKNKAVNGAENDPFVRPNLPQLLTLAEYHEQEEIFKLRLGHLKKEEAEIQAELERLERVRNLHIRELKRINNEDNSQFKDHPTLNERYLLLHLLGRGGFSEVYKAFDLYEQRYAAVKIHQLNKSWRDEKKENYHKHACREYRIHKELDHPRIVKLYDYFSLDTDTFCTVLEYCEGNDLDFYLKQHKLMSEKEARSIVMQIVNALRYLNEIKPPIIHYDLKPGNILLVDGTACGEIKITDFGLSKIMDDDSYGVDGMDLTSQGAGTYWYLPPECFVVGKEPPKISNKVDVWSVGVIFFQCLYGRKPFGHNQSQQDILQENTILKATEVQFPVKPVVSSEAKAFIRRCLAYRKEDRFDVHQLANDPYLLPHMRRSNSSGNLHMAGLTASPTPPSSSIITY

FLT3(R834Q) = target: T17, FLT3(R834Q) (Homo sapiens, UniProt P36888, R834Q); conditions: 10 µM
T17 construct: purchased DiscoverX (KINOMEscan)

AURKB = target: T18, AURKB (Homo sapiens, UniProt Q96GD4); conditions: 10 µM
T18 construct: purchased DiscoverX (KINOMEscan)
T18 sequence (Q96GD4 whole entry): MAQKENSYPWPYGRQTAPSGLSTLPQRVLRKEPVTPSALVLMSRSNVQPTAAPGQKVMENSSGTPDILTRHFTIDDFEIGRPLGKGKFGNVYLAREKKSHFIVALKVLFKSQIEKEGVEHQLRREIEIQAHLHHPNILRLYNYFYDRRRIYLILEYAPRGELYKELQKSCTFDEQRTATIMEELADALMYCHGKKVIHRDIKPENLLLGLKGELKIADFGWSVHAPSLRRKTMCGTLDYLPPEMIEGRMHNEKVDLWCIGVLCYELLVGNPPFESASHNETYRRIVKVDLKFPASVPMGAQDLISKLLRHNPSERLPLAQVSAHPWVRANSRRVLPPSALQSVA

EGFR(G719S) = target: T19, EGFR(G719S) (Homo sapiens, UniProt P00533, G719S); conditions: 10 µM
T19 construct: purchased DiscoverX (KINOMEscan)

TXK = target: T20, TXK (Homo sapiens, UniProt P42681); conditions: 10 µM
T20 construct: purchased DiscoverX (KINOMEscan)

MERTK = target: T21, MERTK (Homo sapiens, UniProt Q12866); conditions: 10 µM
T21 construct: purchased DiscoverX (KINOMEscan)
T21 sequence (Q12866 21-999): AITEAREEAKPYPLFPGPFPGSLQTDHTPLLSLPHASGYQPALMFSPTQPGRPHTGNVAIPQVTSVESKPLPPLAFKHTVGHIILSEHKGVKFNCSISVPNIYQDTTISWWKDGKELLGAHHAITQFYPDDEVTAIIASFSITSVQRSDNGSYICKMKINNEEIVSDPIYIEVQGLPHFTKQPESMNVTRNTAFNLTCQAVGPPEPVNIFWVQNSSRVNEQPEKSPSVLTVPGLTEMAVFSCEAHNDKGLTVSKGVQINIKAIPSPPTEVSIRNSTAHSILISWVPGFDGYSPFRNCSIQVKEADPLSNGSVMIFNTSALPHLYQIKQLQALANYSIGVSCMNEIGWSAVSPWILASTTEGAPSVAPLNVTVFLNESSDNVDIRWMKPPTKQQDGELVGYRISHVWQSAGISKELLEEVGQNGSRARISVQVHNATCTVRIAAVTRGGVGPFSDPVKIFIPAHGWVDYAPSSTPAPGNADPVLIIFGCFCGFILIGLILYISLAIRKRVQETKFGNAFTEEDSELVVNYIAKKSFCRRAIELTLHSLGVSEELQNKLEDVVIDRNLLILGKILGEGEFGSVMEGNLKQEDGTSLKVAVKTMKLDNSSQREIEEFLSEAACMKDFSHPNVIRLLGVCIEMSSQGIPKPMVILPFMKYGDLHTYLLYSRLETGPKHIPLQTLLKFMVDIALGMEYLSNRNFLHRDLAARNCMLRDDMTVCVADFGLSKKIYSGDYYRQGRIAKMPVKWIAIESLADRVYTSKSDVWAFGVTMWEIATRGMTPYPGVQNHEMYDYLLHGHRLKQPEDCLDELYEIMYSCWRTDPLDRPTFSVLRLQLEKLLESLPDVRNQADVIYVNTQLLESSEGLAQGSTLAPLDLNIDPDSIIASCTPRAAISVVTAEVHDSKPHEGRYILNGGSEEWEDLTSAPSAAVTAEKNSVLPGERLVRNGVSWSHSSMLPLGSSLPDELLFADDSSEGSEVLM

TGFBR2 = target: T22, TGFBR2 (Homo sapiens, UniProt P37173); conditions: 10 µM
T22 construct: purchased DiscoverX (KINOMEscan)

MARK2 = target: T23, MARK2 (Homo sapiens, UniProt Q7KZI7); conditions: 10 µM
T23 construct: purchased DiscoverX (KINOMEscan)

[2] = target: T24, RSK3(Kin.Dom.1-N-terminal) (Homo sapiens, UniProt Q15349); conditions: 10 µM
T24 construct: RSK3(Kin.Dom.1-N-terminal); purchased DiscoverX (KINOMEscan)

PRKD3 = target: T25, PRKD3 (Homo sapiens, UniProt O94806); conditions: 10 µM
T25 construct: purchased DiscoverX (KINOMEscan)

ACVRL1 = target: T26, ACVRL1 (Homo sapiens, UniProt P37023); conditions: 10 µM
T26 construct: purchased DiscoverX (KINOMEscan)
T26 sequence (P37023 22-503): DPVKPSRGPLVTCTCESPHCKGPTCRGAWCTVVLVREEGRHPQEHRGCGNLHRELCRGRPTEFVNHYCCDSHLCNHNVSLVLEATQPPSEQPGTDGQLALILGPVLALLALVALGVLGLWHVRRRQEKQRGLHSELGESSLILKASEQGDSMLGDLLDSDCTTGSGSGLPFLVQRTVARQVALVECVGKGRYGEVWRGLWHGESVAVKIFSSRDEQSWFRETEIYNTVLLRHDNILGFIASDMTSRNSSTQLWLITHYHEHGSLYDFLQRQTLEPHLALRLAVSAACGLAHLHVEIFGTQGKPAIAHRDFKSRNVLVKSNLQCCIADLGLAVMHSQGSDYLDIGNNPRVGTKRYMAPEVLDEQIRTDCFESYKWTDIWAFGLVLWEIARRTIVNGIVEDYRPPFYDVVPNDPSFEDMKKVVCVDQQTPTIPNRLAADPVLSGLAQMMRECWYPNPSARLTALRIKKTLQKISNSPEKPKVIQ

LKB1 = target: T27, LKB1 (Homo sapiens, UniProt Q15831); conditions: 10 µM
T27 construct: purchased DiscoverX (KINOMEscan)

TBK1 = target: T28, TBK1 (Homo sapiens, UniProt Q9UHD2); conditions: 10 µM
T28 construct: purchased DiscoverX (KINOMEscan)

IRAK3 = target: T29, IRAK3 (Homo sapiens, UniProt Q9Y616); conditions: 10 µM
T29 construct: purchased DiscoverX (KINOMEscan)

BRSK2 = target: T30, BRSK2 (Homo sapiens, UniProt Q8IWQ3); conditions: 10 µM
T30 construct: purchased DiscoverX (KINOMEscan)
T30 sequence (Q8IWQ3 whole entry): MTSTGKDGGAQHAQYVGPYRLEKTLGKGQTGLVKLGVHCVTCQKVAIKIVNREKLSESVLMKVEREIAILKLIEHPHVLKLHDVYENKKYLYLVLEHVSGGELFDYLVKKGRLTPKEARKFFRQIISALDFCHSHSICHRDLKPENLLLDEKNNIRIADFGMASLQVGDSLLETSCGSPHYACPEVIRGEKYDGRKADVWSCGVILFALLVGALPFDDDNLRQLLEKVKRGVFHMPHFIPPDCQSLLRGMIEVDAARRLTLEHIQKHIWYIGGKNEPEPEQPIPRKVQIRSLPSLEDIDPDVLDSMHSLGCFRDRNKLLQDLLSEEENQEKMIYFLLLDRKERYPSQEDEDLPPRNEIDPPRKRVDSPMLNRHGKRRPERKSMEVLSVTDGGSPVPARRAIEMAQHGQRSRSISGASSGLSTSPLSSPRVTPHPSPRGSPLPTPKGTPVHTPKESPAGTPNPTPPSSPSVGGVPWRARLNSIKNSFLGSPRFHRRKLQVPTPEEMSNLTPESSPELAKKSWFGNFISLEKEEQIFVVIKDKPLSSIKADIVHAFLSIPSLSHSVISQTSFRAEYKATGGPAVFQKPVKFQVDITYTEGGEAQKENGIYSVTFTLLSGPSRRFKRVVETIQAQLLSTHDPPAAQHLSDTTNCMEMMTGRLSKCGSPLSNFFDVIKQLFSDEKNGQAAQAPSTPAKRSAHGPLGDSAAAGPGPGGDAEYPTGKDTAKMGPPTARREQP

AURKC = target: T31, AURKC (Homo sapiens, UniProt Q9UQB9); conditions: 10 µM
T31 construct: purchased DiscoverX (KINOMEscan)

FGR = target: T32, FGR (Homo sapiens, UniProt P09769); conditions: 10 µM
T32 construct: purchased DiscoverX (KINOMEscan)

CSNK1G2 = target: T33, CSNK1G2 (Homo sapiens, UniProt P78368); conditions: 10 µM
T33 construct: purchased DiscoverX (KINOMEscan)

Nc1ccc(N=Nc2ccccc2)c(N)n1 [phenazopyridine, 2,6-diamino-3-(phenylazo)pyridine]
kinase inhibition (CSNK1G1): 85
kinase inhibition (ROS1): 100
kinase inhibition (MET): 100
kinase inhibition [1]: 32
percent of control (remaining binding) (PIK3CG; 10 µM): 27
remaining binding at 10 µM (PIK3CG; read-out: Kinome scan (% of control at 10 µM)): 27%
kinase inhibition (MAP3K2): 85
kinase inhibition (HIPK2): 89
kinase inhibition (EGFR(L747-E749delA750P)): 86
percent of control binding (DYRK2; 10 µM): 20
remaining binding at 10 µM (DYRK2; read-out: % Of control): 20%
kinase inhibition (CDKL3): 74
kinase inhibition (LCK): 96
kinase inhibition (CDC2L1): 90
kinase inhibition (CAMKK1): 100
kinase inhibition (KIT(V559DV654A)): 87
kinase inhibition (TAK1): 80
kinase inhibition (TLK1): 70
remaining binding (% of control) (FLT3(R834Q)): 89
kinase inhibition (AURKB): 72
kinase inhibition (EGFR(G719S)): 92
remaining binding (% of control) (TXK): 100
kinase inhibition (MERTK): 100
kinase inhibition (TGFBR2): 66
kinase inhibition (MARK2): 100
kinase inhibition [2]: 100
kinase inhibition (PRKD3): 100
kinase inhibition (ACVRL1): 71
kinase inhibition (LKB1): 88
kinase inhibition (TBK1): 100
kinase inhibition (IRAK3): 71
kinase inhibition (BRSK2): 90
kinase inhibition (AURKC): 68
remaining binding (% of control) (FGR): 87
kinase inhibition (CSNK1G2): 82
